We go through 37 molecules from ChEMBL document CHEMBL4613209, “Quinolone hybrids and their anti-cancer activities: An overview” (Eur J Med Chem, 2019).

What all share (format): functional, cell-based
Assay [1] concerns L1210. Briefly: Cytotoxicity against mouse L1210 cells assessed as reduction in cell viability by MTT assay.
For assay [2], the system named is CAPAN-1. Briefly: Cytotoxicity against human Capan1 cells assessed as reduction in cell viability by MTT assay.
In assay [3] the test system is HL-60. As to the kind of experiment: Cytotoxicity against human HL60 cells assessed as reduction in cell viability by MTT assay.
Assay [4] concerns Hep 3B2. As to the kind of experiment: Cytotoxicity against human Hep3B cells assessed as reduction in cell viability by MTT assay. On the technique in general: Tetrazolium assays rely on reduction of a dye to a coloured formazan, in cell work by metabolically active cells.
Assay [5] deals with SMMC-7721. As to the kind of experiment: Cytotoxicity against human SMMC7721 cells assessed as reduction in cell viability by MTT assay.

For orientation: IC50 means the point on the concentration scale where inhibition reaches its midpoint. Take `CCn1cc(-c2nc3scc(-c4ccc(C)cc4)n3n2)c(=O)c2cc(F)c(N3CCN(C)CC3)cc21`: the IC50 in assay [1], in assay [2], in assay [3], in assay [4] and in assay [5] was 3.6 to 56.8 µM in each case.

With `CCn1cc(-c2nnc(SCc3nnc(-c4ccc([N+](=O)[O-])cc4)o3)[nH]2)c(=O)c2cc(F)c(N3CCN(C)CC3)cc21`, the IC50 in assay [1], in assay [2], in assay [3], in assay [4] and in assay [5] was 3.8 to 35.2 µM each time.

Turning to `COc1ccc(-c2csc3nc(-c4cn5c6c(c(N7CCN(C)CC7)c(F)cc6c4=O)OCC5C)nn23)cc1OC` (configuration not stated), the IC50 in assay [1], in assay [2], in assay [3], in assay [4] and in assay [5] was 35.7 to 53.6 µM each time.

As for `CCn1cc(-c2nc3scc(-c4ccccc4)n3n2)c(=O)c2cc(F)c(N3CCN(C)CC3)cc21`, the IC50 in assay [1], in assay [2], in assay [3], in assay [4] and in assay [5] was 3.6 to 56.8 µM each time.

For `COc1cc(-c2nnc(CSc3nnc(-c4cn5c6c(c(N7CCN(C)CC7)c(F)cc6c4=O)OCC5C)o3)o2)cc(OC)c1OC` (configuration not stated), the IC50 in assay [1], in assay [3] and in assay [5] was 5.7 to 24.7 µM in each case.

On to `CCn1cc(-c2nc3scc(-c4ccc(F)cc4)n3n2)c(=O)c2cc(F)c(N3CCN(C)CC3)cc21`, for which the IC50 in assay [1], in assay [2], in assay [3], in assay [4] and in assay [5] was 3.6 to 56.8 µM in each case.

Consider `CCn1cc(-c2nnc(SCc3nnc(-c4ccccc4OC)o3)[nH]2)c(=O)c2cc(F)c(N3CCN(C)CC3)cc21`, for which the IC50 in assay [1], in assay [2], in assay [3], in assay [4] and in assay [5] was 3.8 to 35.2 µM in each case.

`CN1CCN(c2cc3c(cc2F)c(=O)c(-c2nc4scc(-c5ccc(F)cc5)n4n2)cn3C2CC2)CC1`: the concentration for half-maximal inhibition (IC50) in assay [1], in assay [2], in assay [3], in assay [4] and in assay [5] was 3.6 to 56.8 µM in each case.

Turning to `CC1COc2c(N3CCN(C)CC3)c(F)cc3c(=O)c(-c4nnc(SCc5nnc(-c6ccccc6)o5)o4)cn1c23` (configuration not stated), the concentration for half-maximal inhibition (IC50) in assay [1], in assay [3] and in assay [5] was 5.7 to 24.7 µM throughout.

Regarding `CCn1cc(-c2nnc(SCc3nnc(-c4ccc(OC)c(OC)c4)o3)[nH]2)c(=O)c2cc(F)c(N3CCN(C)CC3)cc21`, the IC50 in assay [1], in assay [2], in assay [3], in assay [4] and in assay [5] was 3.8 to 35.2 µM each time.

As to `Cc1ccc(-c2nnc(CSc3nnc(-c4cn5c6c(c(N7CCN(C)CC7)c(F)cc6c4=O)OCC5C)o3)o2)cc1` (configuration not stated), the half-maximal inhibitory concentration (IC50) in assay [1], in assay [3] and in assay [5] was 5.7 to 24.7 µM in each case.

In the case of `CCn1cc(-c2nc(SCc3nnc(-c4cccc(C)c4)o3)n(CN(C)C)n2)c(=O)c2cc(F)c(N3CCN(C)CC3)cc21`, the IC50 in assay [1], in assay [2], in assay [3], in assay [4] and in assay [5] was 1.5 to 24.5 µM throughout.

Take `CC1COc2c(N3CCN(C)CC3)c(F)cc3c(=O)c(-c4nnc(SCc5nnc(-c6ccc([N+](=O)[O-])cc6)o5)o4)cn1c23` (configuration not stated): the IC50 in assay [1], in assay [3] and in assay [5] was 5.7 to 24.7 µM throughout.

In the case of `CN1CCN(c2cc3c(cc2F)c(=O)c(-c2nc4scc(-c5ccc([N+](=O)[O-])cc5)n4n2)cn3C2CC2)CC1`, the IC50 in assay [2], in assay [3] and in assay [4] was 3.6 to 7.6 µM in each case.

`CN1CCN(c2cc3c(cc2F)c(=O)c(-c2nc4scc(-c5ccccc5)n4n2)cn3C2CC2)CC1`: the concentration for half-maximal inhibition (IC50) in assay [1], in assay [2], in assay [3], in assay [4] and in assay [5] was 3.6 to 56.8 µM in each case.

Regarding `COc1cc(-c2nnc(CSc3nnc(-c4cn(C5CC5)c5cc(N6CCN(C)CC6)c(F)cc5c4=O)o3)o2)cc(OC)c1OC`, the IC50 in assay [1], in assay [3] and in assay [5] was 2.4 to 32.4 µM in each case.

With `CC1COc2c(N3CCN(C)CC3)c(F)cc3c(=O)c(-c4nc5scc(-c6ccccc6)n5n4)cn1c23` (configuration not stated), the IC50 in assay [1], in assay [2], in assay [3], in assay [4] and in assay [5] was 3.6 to 56.8 µM each time.

As for `CC1COc2c(N3CCN(C)CC3)c(F)cc3c(=O)c(-c4nnc(SCc5nnc(-c6ccc(Cl)cc6)o5)o4)cn1c23` (configuration not stated), the concentration for half-maximal inhibition (IC50) in assay [1], in assay [3] and in assay [5] was 5.7 to 24.7 µM each time.

`CCn1cc(-c2nc(SCc3nnc(-c4ccccc4)o3)n(CN(C)C)n2)c(=O)c2cc(F)c(N3CCN(C)CC3)cc21`: the IC50 in assay [1], in assay [2], in assay [3], in assay [4] and in assay [5] was 1.5 to 24.5 µM throughout.

For `CCn1cc(-c2nnc(SCc3nnc(-c4ccc(Cl)cc4)o3)[nH]2)c(=O)c2cc(F)c(N3CCN(C)CC3)cc21`, the IC50 in assay [1], in assay [2], in assay [3], in assay [4] and in assay [5] was 3.8 to 35.2 µM in each case.

`CN1CCN(c2cc3c(cc2F)c(=O)c(-c2nc4scc(-c5ccc(Cl)cc5)n4n2)cn3C2CC2)CC1`: the concentration for half-maximal inhibition (IC50) in assay [1], in assay [2], in assay [3], in assay [4] and in assay [5] was 3.6 to 56.8 µM throughout.

As to `Cc1ccc(-c2nnc(CSc3nnc(-c4cn(C5CC5)c5cc(N6CCN(C)CC6)c(F)cc5c4=O)o3)o2)cc1`, the IC50 in assay [1], in assay [3] and in assay [5] was 2.4 to 32.4 µM throughout.

Turning to `CC1COc2c(N3CCN(C)CC3)c(F)cc3c(=O)c(-c4nc5scc(-c6ccc([N+](=O)[O-])cc6)n5n4)cn1c23` (configuration not stated), the IC50 in assay [1], in assay [2], in assay [3], in assay [4] and in assay [5] was 3.6 to 56.8 µM in each case.

As to `CCn1cc(-c2nnc(SCc3nnc(-c4ccccc4)o3)[nH]2)c(=O)c2cc(F)c(N3CCN(C)CC3)cc21`, the concentration for half-maximal inhibition (IC50) in assay [1], in assay [2], in assay [3], in assay [4] and in assay [5] was 3.8 to 35.2 µM in each case.

As for `COc1ccccc1-c1nnc(CSc2nnc(-c3cn(C4CC4)c4cc(N5CCN(C)CC5)c(F)cc4c3=O)o2)o1`, the IC50 in assay [1], in assay [3] and in assay [5] was 2.4 to 32.4 µM each time.

On to `CN1CCN(c2cc3c(cc2F)c(=O)c(-c2nnc(SCc4nnc(-c5ccccc5)o4)o2)cn3C2CC2)CC1`, for which the 50% inhibitory concentration (IC50) in assay [1], in assay [3] and in assay [5] was 2.4 to 32.4 µM each time.

In the case of `CCn1cc(-c2nc(SCc3nnc(-c4ccc(Cl)cc4)o3)n(CN(C)C)n2)c(=O)c2cc(F)c(N3CCN(C)CC3)cc21`, the IC50 in assay [1], in assay [2], in assay [3], in assay [4] and in assay [5] was 1.5 to 24.5 µM in each case.

As for `CCn1cc(-c2nc3scc(-c4ccc(OC)c(O)c4)n3n2)c(=O)c2cc(F)c(N3CCN(C)CC3)cc21`, the IC50 in assay [1], in assay [2], in assay [3], in assay [4] and in assay [5] was 3.6 to 56.8 µM each time.

Regarding `CCn1cc(-c2nc(SCc3nnc(-c4ccc(OC)c(OC)c4)o3)n(CN(C)C)n2)c(=O)c2cc(F)c(N3CCN(C)CC3)cc21`, the IC50 in assay [1], in assay [2], in assay [3], in assay [4] and in assay [5] was 1.5 to 24.5 µM each time.

Take `COc1ccccc1-c1nnc(CSc2nnc(-c3cn4c5c(c(N6CCN(C)CC6)c(F)cc5c3=O)OCC4C)o2)o1` (configuration not stated): the half-inhibitory concentration (IC50) in assay [1], in assay [3] and in assay [5] was 5.7 to 24.7 µM throughout.

As for `CC1COc2c(N3CCN(C)CC3)c(F)cc3c(=O)c(-c4nc5scc(-c6ccc(F)cc6)n5n4)cn1c23` (configuration not stated), the IC50 in assay [1], in assay [2], in assay [3], in assay [4] and in assay [5] was 3.6 to 56.8 µM in each case.

Take `COc1ccc(-c2csc3nc(-c4cn(C5CC5)c5cc(N6CCN(C)CC6)c(F)cc5c4=O)nn23)cc1`: the IC50 in assay [1], in assay [2], in assay [3], in assay [4] and in assay [5] was 3.6 to 56.8 µM in each case.

For `CCn1cc(-c2nnc(SCc3nnc(-c4ccc(OC)cc4)o3)[nH]2)c(=O)c2cc(F)c(N3CCN(C)CC3)cc21`, the 50% inhibitory concentration (IC50) in assay [1], in assay [2], in assay [3], in assay [4] and in assay [5] was 3.8 to 35.2 µM throughout.

Regarding `CCn1cc(-c2nnc(SCc3nnc(-c4cccc(C)c4)o3)[nH]2)c(=O)c2cc(F)c(N3CCN(C)CC3)cc21`, the IC50 in assay [1], in assay [2], in assay [3], in assay [4] and in assay [5] was 3.8 to 35.2 µM throughout.

For the molecule `CN1CCN(c2cc3c(cc2F)c(=O)c(-c2nnc(SCc4nnc(-c5ccc(Cl)cc5)o4)o2)cn3C2CC2)CC1`, the IC50 in assay [1], in assay [3] and in assay [5] was 2.4 to 32.4 µM each time.

Regarding `COc1ccc(-c2nnc(CSc3nnc(-c4cn5c6c(c(N7CCN(C)CC7)c(F)cc6c4=O)OCC5C)o3)o2)cc1` (configuration not stated), the IC50 in assay [1], in assay [3] and in assay [5] was 5.7 to 24.7 µM throughout.

Consider `CN1CCN(c2cc3c(cc2F)c(=O)c(-c2nnc(SCc4nnc(-c5ccc([N+](=O)[O-])cc5)o4)o2)cn3C2CC2)CC1`, for which the IC50 in assay [1], in assay [3] and in assay [5] was 2.4 to 32.4 µM each time.
